We go through 19 compounds from ChEMBL document CHEMBL4396901, “Discovery of Potent and Noncovalent Reversible EGFR Kinase Inhibitors of EGFRL858R/T790M/C797S” (ACS Med Chem Lett, 2019).

Each structure is given as a SMILES string. Activity calls are given as the source filed them. No cut-off for these calls is given here.

Assay [1] deals with Epidermal growth factor receptor (Homo sapiens), P00533 [L858R,T790M,C797S]. As to the kind of experiment: (§1) Inhibition of recombinant human C-terminal His-tagged/N-terminal GST-tagged EGFR (668 to 1210 residues) T790M/L858R/C797S mutant expressed in baculovirus expression system using poly (Glu,Tyr) 4:1 as substrate incubated for 1 hr in presence of ATP by ELISA. In general terms: In an ELISA, binding on a coated surface is turned into a signal by an enzyme label.

Assay [2] relates to BaF3. As to the kind of experiment: Cytotoxicity against mouse BAF3 cells incubated for 72 hrs by resazurin dye based assay. The class given is cell-based. To be noted: BaF3, 72 h. In general terms: Resazurin is reduced to fluorescent resorufin, in cell work by metabolically active cells.
The test system of assay [3] is BaF3. As to the kind of experiment: Antiproliferative activity against mouse BAF3 cells transfected with EGFR L858R/T790M/C797S mutant (unknown origin) incubated for 72 hrs by resazurin dye based assay. The class given is functional, cell-based. To be noted: BaF3, 72 h.
For a further assay, the system named is NCI-H1975. As to the kind of experiment: Antiproliferative activity human NCI-H1975 cells incubated for 72 hrs by SRB assay. The class given is functional, cell-based. To be noted: NCI-H1975, 72 h. In general terms: Sulforhodamine B stains cellular protein and so reports cell mass.
The next assay relates to A-431. As to the kind of experiment: Antiproliferative activity human A431 cells incubated for 72 hrs by SRB assay. The class given is functional, cell-based. To be noted: A-431, 72 h.
Assay [4] relates to Epidermal growth factor receptor (Homo sapiens), P00533 [L858R,T790M]. As to the kind of experiment: Inhibition of human EGFR T790M/L858R mutant using poly (Glu,Tyr) 4:1 as substrate incubated for 1 hr in presence of ATP by ELISA.
In assay [5] the target is Epidermal growth factor receptor (Homo sapiens, UniProt P00533, C797S/L858R/T790M). The assay is described as §1.
Chain of Epidermal growth factor receptor (P00533 whole entry T790M/C797S/L858R): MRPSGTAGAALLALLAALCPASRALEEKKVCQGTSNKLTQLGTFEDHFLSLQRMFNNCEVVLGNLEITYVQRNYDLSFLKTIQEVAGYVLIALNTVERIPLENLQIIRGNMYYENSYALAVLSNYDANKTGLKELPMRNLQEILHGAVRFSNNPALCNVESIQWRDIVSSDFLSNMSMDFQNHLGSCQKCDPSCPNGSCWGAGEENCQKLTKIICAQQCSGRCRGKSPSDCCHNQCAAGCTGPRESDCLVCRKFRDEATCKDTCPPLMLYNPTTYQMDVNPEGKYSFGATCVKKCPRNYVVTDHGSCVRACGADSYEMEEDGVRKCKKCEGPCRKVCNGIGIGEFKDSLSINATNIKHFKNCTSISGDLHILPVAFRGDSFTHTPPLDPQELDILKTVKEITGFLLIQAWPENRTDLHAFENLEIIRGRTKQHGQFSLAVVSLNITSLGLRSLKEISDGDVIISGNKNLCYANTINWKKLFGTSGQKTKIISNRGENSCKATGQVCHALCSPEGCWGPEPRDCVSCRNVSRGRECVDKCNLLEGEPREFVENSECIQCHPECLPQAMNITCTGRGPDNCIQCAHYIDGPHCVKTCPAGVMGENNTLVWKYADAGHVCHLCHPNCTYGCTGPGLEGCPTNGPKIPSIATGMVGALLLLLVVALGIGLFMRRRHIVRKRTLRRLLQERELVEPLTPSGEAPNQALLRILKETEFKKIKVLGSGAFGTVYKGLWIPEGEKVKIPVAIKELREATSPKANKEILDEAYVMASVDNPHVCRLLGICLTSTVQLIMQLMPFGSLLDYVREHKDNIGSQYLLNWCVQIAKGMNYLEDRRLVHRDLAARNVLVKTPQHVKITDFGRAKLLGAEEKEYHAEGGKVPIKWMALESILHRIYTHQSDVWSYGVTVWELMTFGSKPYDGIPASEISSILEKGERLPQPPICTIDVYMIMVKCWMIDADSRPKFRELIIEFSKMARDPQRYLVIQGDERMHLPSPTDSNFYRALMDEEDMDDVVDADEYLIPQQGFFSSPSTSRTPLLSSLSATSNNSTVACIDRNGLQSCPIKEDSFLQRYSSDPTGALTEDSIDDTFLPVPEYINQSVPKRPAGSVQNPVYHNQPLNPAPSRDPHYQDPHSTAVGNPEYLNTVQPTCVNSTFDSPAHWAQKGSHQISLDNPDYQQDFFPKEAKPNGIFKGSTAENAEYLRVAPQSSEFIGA

Chain of Epidermal growth factor receptor (Homo sapiens), P00533 [L858R,T790M,C797S] (P00533 whole entry T790M/C797S/L858R, the tested form may be a part): as the sequence (P00533 whole entry T790M/C797S/L858R) above
Chain of Epidermal growth factor receptor (Homo sapiens), P00533 [L858R,T790M] (P00533 whole entry T790M/L858R, looked up): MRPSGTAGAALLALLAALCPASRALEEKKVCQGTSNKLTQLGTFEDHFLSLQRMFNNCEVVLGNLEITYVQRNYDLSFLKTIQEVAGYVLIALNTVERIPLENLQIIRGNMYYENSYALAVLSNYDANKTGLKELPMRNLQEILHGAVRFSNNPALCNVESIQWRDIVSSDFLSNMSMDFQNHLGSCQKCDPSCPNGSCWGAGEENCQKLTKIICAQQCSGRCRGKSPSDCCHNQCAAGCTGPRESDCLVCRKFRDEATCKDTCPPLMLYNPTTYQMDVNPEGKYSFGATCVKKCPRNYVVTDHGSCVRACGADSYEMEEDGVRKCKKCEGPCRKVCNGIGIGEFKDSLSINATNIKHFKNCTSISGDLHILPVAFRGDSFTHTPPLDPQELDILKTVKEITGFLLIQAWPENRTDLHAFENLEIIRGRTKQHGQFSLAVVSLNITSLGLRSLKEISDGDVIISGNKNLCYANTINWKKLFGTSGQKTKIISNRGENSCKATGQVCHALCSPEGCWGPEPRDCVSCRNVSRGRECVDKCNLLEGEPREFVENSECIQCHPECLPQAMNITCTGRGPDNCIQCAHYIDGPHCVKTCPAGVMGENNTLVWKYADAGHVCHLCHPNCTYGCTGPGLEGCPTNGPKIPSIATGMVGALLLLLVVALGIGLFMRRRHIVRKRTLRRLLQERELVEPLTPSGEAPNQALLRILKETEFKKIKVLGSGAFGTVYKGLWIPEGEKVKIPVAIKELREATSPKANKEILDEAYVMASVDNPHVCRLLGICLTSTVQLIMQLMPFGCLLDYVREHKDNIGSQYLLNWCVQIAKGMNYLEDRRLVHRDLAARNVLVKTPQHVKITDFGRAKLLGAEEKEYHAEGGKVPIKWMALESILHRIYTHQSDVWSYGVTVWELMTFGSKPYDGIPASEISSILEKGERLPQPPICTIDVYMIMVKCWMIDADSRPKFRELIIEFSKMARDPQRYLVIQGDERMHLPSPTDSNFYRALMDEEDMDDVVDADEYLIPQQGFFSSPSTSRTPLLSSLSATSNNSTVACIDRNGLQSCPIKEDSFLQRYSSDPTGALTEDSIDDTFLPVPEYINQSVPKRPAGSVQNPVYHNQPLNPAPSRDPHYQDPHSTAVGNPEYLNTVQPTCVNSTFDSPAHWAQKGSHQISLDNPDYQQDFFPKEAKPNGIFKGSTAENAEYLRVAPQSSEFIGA

As to `COc1cc2c(Nc3cc(NC(=O)CC4Cc5ccccc5C4)ccc3F)ncnc2cc1OCC1CCN(C)CC1`, the inhibition entry in assay [1] is “inactive”.
The term IC50 denotes the concentration that gives 50% inhibition. Turning to `C=CC(=O)Nc1cc(Nc2nccc(-c3cn(C)c4ccccc34)n2)c(OC)cc1N(C)CCN(C)C` [OSIMERTINIB], the IC50 in the assay with BaF3 [2] was 5.11 µM; with BaF3 [3], 3.93 µM; with NCI-H1975 it was […]; with A-431, […].
As to `COc1cc2nc(N)nc(Nc3ccc(NC(=O)C(c4ccccc4)N4Cc5ccccc5C4=O)cc3F)c2cc1OC` (stereo not drawn), the inhibition entry in assay [1] and in assay [4] was “inactive” throughout.
`COc1cc2c(Nc3ccc(NC(=O)C(c4ccccc4)c4ccccc4)cc3F)ncnc2cc1OCC1CCN(C)CC1`: in assay [1], the inhibition result is “inactive”.
Still for that read-out and setting: the result for `COc1cc2c(Nc3ccc(NC(=O)c4ccccc4)cc3F)ncnc2cc1OCC1CCN(C)CC1` reads “inactive”; that for `COc1cc2ncnc(Nc3ccc(NC(=O)C(c4ccccc4)N4Cc5ccccc5C4=O)cc3F)c2cc1OC` (stereo not drawn), “Active”.
In the case of `COc1cc2c(Nc3ccc(NC(=O)C(c4ccccc4)N4Cc5ccccc5C4=O)cc3F)ncnc2cc1OCC1CCN(C)CC1` (stereo not drawn), in assay [5], the 50% inhibitory concentration (IC50) was 0.0093 µM.
Regarding `COc1cc2c(Nc3ccc(NC(=O)Cc4ccccc4)cc3F)ncnc2cc1OCC1CCN(C)CC1`, in assay [1], the inhibition entry was “inactive”.
Still for that read-out and setting: the result for `COc1cc2c(Nc3ccc(NC(=O)CC4Cc5ccccc5C4)cc3F)ncnc2cc1OCC1CCN(C)CC1` reads “inactive”.
As for `COc1cc2c(Nc3cc(NC(=O)C(c4ccccc4)N4Cc5ccccc5C4=O)ccc3F)ncnc2cc1OCC1CCN(C)CC1` (stereo not drawn), in assay [5], the half-inhibitory concentration (IC50) worked out at 0.0371 µM.
As for `COc1cc2c(Nc3cc(NC(=O)c4ccccc4)ccc3F)ncnc2cc1OCC1CCN(C)CC1`, in assay [1], the inhibition result is “inactive”.
The same measure, in the same setting: to `COc1cc2ncnc(Nc3ccc(NC(=O)C(c4ccccc4)N4Cc5ccccc5C4=O)cc3F)c2cc1OCN1CCOCC1` (stereo not drawn) belongs “Active”.
For `COc1cc(N2CCC(N3CCN(C)CC3)CC2)ccc1Nc1ncc(Cl)c(Nc2ccccc2P(C)(C)=O)n1` [BRIGATINIB], the midpoint of inhibition in the assay on BaF3 [2], the IC50, lay at 7.31 µM.
With `COc1cc2c(Nc3cc(NC(=O)Cc4ccccc4)ccc3F)ncnc2cc1OCC1CCN(C)CC1`, the inhibition entry in assay [1] is “inactive”.
On to `O=C(Nc1nccs1)C(c1cc(F)ccc1O)N1Cc2ccccc2C1=O` (stereo not drawn), for which the IC50 in the assay with BaF3 [2] is > 10 µM.
Take `COc1cc2c(Nc3ccc(NC(=O)C(C4CCCCC4)N4Cc5ccccc5C4=O)cc3F)ncnc2cc1OCC1CCN(C)CC1` (stereo not drawn): the half-maximal inhibitory concentration (IC50) in assay [5] was 0.18 µM.
Turning to `COc1cc2c(Nc3ccc(NC(=O)C(C)c4ccccc4)cc3F)ncnc2cc1OCC1CCN(C)CC1` (stereo not drawn), the inhibition result in assay [1] is “inactive”.
On the same count and under the same terms, the result for `COc1cc2c(Nc3ccc(NC(=O)C(c4ccccc4)C(C)C)cc3F)ncnc2cc1OCC1CCN(C)CC1` (stereo not drawn) reads “inactive”.
On the same count and under the same terms, the result for `COc1cc2ncnc(Nc3ccc(NC(=O)C(c4ccccc4)N4Cc5ccccc5C4=O)cc3F)c2cc1OCCCN1CCOCC1` (stereo not drawn) reads “Active”.
